Data from patent US20010036944A1, “Certain benzothiazine dioxide endothelin antagonists and processes for their preparation” (priority 1997, published 2001).
Counter-ions that a name gives are not always drawn. Like-named read-outs stand apart in the source and are kept apart here.

Tests used:
[1] = target: T1, recombinant human ETAR (HETA) (Homo sapiens, UniProt P25101); assay: Radioligand binding, [125I]ET-1 to membranes of Ltk- cells expressing recombinant human ETAR (HETA); conditions: [125I]ET-1 binding, human ETA, Ltk- cell membranes; read-out: HETA (IC50)
T1 construct: expressed in transfected cells; host or cells: Ltk- cells (membrane preparation)
T1 sequence (P25101 21-427): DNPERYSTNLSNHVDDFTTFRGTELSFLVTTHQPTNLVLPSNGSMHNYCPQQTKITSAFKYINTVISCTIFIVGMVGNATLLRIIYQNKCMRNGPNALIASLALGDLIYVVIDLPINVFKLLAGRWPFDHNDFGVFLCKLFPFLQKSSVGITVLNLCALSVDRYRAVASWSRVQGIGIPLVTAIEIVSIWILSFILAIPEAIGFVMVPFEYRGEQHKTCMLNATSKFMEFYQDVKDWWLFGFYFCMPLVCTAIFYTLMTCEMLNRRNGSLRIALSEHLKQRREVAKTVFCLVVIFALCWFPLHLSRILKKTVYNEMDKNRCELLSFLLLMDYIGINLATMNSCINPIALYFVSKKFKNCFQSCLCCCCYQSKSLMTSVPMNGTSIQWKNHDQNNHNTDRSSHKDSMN
Description: (§1) The following cultured cells were used in binding experiments: Ltk-cells expressing recombinant human ETAR (HETA), and CHOKI cells expressing recombinant human ETBR (HETB).
(§2) Membranes were prepared from cultured cells by lysing cells in cold lysis buffer (5 mM HEPES, 2 mM EDTA, pH 7.4) and homogenizing with a Dounce “A” homogenizer. The homogenate was centrifuged at 30,000×g for 20 minutes at […]. Membrane pellets were suspended in cold buffer containing 20 mM Tris, 2 mM EDTA, 200 μM Pefabloc, 10 μM phosphoramidon, 10 μM leupeptin, 1 μM pepstatin at pH 7.4 and frozen at […] until use. Membranes were thawed and homogenized with a Brinkmann Polytron then diluted in tissue buffer containing 20 mM Tris, 2 mM EDTA, 200 μM Pefabloc, and 100 μM bacitracin (pH 7.4). Radioligand and competing ligands were prepared in binding buffer containing 20 mM Tris, 2 mM EDTA, and 0.1% BSA.
(§3) The assay was terminated by filtration over Whatman GF/B filters which were presoaked with 50 mM Tris, pH 7.4 containing 0.2% BSA and 100 μM bacitracin. Nonspecific binding was defined as binding in the presence of 100 nM ET-1.

[2] = target: T2, recombinant human ETBR (HETB) (Homo sapiens, UniProt P24530); assay: Radioligand binding, [125I]ET-1 to membranes of CHOKI cells expressing recombinant human ETBR (HETB); conditions: [125I]ET-1 binding, human ETB, CHOKI cell membranes
T2 construct: expressed in transfected cells; host or cells: CHOKI (CHO-K1) cells (membrane preparation)
T2 sequence (P24530 27-442): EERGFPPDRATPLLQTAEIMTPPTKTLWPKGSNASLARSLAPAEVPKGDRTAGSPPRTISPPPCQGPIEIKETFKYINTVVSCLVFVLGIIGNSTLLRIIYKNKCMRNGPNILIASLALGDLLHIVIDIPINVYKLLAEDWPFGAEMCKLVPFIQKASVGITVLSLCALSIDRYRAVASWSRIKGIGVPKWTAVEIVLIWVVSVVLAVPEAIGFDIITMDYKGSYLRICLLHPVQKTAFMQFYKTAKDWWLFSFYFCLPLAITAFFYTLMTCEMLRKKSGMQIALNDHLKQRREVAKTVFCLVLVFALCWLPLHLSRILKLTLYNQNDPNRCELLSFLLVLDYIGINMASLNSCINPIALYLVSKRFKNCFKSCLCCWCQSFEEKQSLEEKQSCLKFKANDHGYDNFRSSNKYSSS
Description: as §1, §2, §3

[3] = system: ETA, rabbit femoral artery; assay: Antagonism of ET-1 stimulated vasoconstriction (VERAA) in the rabbit femoral artery (ETA); conditions: ET-1 stimulated vasoconstriction, rabbit femoral artery
Source text: In Vitro Antagonism of ET-1 Stimulated Vasoconstriction (VERAA) in the Rabbit Femoral Arterv (ETA) and Sarafotoxin 6C Stimulated Vasoconstriction in the Rabbit Pulmonarv Artery (ETB)
Male New Zealand rabbits were killed by cervical dislocation and exsanguination. Femoral and pulmonary arteries were isolated, cleaned of connective tissue, and cut into 4mm rings. The endothelium was denuded by placing the rings over hypodermic tubing (32 gauge for femoral rings and 28 gauge for pulmonary rings, Small Parts, Inc., Miami, Fla.) and gently rolling them. Denuded rings were mounted in 20 mL organ baths containing Krebsbicarbonate buffer (composition in mM: NaCl, 118.2; NaHCO3, 24.8; KCl, 4.6; MgSO4 7H2O, 1.2; KH2PO4, 1.2; CaCl2 2H2O; CaNa2 EDTA, 0.026;, dextrose, 10.0), that was maintained at 37° C. and gassed continuously with 5% CO2 in oxygen (pH 7.4). Resting tension was adjusted to 3.0 g for femoral and 4.0 g pulmonary arteries; the rings were left for 90 minutes to equilibrate. Vascular rings were tested for lack of functional endothelium (ie, lack of an endotheliumdependent relaxation response to carbachol ([…]) in norepinephrine ([…]) contracted rings. Agonist peptides, ET-1 -(femoral), and S6c (pulmonary), were cumulatively added at 10-minute intervals. The ET antagonists were added 30 minutes prior to adding the agonist.

[4] = system: ETA, cultured rabbit renal artery vascular smooth muscle cells; assay: Inhibition of ET-1 stimulated arachidonic acid release (AAR) in cultured rabbit vascular smooth muscle cells (ETA); assay type: cell-based
Description: In Vitro Inhibition of ET-1 Stimulated Arachidonic Acid Release (AAR) in Cultured Rabbit Vascular Smooth Muscle Cells (ETA) by the Compounds of the Invention
Antagonist activity is measured by the ability of added compounds to reduce endothelinstimulated arachidonic acid release in cultured vascular smooth muscle cells. [^3H]Arachidonic Acid Loading Media (LM) is DME/F12+0.5% FCS×0.25 mCi/mL [^3H]arachidonic acid (Amersham). Confluent monolayers of cultured rabbit renal artery vascular smooth muscle cells were incubated in 0.5 mL of the LM over 18 hours, at 37° C., in 5% CO2. The LM was aspirated and the cells were washed once with the assay buffer (Hank's BSS +10 mM HEPES +fatty acidfree BSA (1 mg/mL)), and incubated for 5 minutes with 1 mL of the prewarmed assay buffer. This solution was aspirated, followed by an additional 1 mL of prewarmed assay buffer, and further incubated for another 5 minutes. A final 5minute incubation was carried out in a similar manner. The same procedure was repeated with the inclusion of 10 μL of the test compound (1 nM to 1 μM) and 10 μL ET-1 -(0.3 nM) and the incubation was extended for 30 minutes. This solution was then collected, 10 mL of scintillation cocktail was added, and the amount of [^3H]arachidonic acid was determined in a liquid scintillation counter.

[5] = Oryctolagus cuniculus, VSMC, read-out: AARA (IC50, μM)

Row | IC50 ([4]; ET-1 (0.3 nM) stimulated arachidonic acid release, rabbit renal artery VSMC, read-out: AARA (IC50)) [µM] | Molecule | IC50 [1] [µM] | IC50 [2] [µM] | VERAA (pA2) [3] | IC50 [4, 5] [µM]
1 | – | 4-(3,5-Dimethyl-phenyl)-2-(2-trifluoro-methyl-phenyl)-1,1-dioxo-1,2dihydro-1λ^6-benzo[e][1,2]thiazine-3-carboxylic acid [Example 31] | 0.006 | > 2.5 | 5.7 | –
2 | 0.0045 | 4-(7-Methoxybenzo[1,3]-dioxol-5-yl)-1,1-dioxo-2-(2-trifluoromethyl-phenyl) 1,2-dihydro 1λ^6-benzo [e][1,2thiazine-3-carboxylic acid [Example 7] | 0.003 | – | 7.0 | –
3 | – | COc1cc(OC)cc(C2=C(C(=O)O)N(c3ccccc3C(F)(F)F)S(=O)(=O)c3ccccc32)c1 [Example 1, 4-(3,5-Dimethoxyphenyl)2-(2-trifluoromethyl-phenyl)-1,1-dioxo-1,2-dihydro-1λ^6-benzo[e][1,2]thiazine-3-carboxylic acid] | 0.003 | > 2.5 | 6.6 | –
4 | – | COc1cc(OC)cc(C2=C(C(=O)O)N(c3ccccc3Cl)S(=O)(=O)c3ccccc32)c1 [Example 2] | 0.002 | 7.3 | 6.6 | –
5 | – | COc1cc(C2=C(C(=O)[O-])N(c3c(C)cccc3C)S(=O)(=O)c3ccccc32)cc2c1OCO2.[Na+] [Example 6, 2-(2,6-Dimeth Iphenyl)4-(7-methoxy-benzo-[1,3]dioxol-5vl)-1,1 dioxo 1,2dihydro 1λ^6-benzo[e][1,2]thiazine-3-carboxylic acid monosodium salt] | 0.004 | > 2.5 | 7.1 | –
6 | – | COc1cc(C2=C(C(=O)O)N(c3ccccc3C)S(=O)(=O)c3ccccc32)cc2c1OCO2 [Example 8, 4-(7-Methoxy-benzo[1,3]dioxol-5-yl)-1,1-dioxo-2o-tolyl-1,2-dihydro-1,6-benzo[e][1,2]-thiazine-3-carboxylic acid] | 0.008 | 3.9 | 6.5 | –
7 | – | COc1cc(C2=C(C(=O)O)N(c3ccccc3Br)S(=O)(=O)c3ccccc32)cc2c1OCO2 [Example 9, 2-(2-Bromo-phenyl)4-(7-methoxy-benzo[1,3]-dioxol-5-yl)-1,1 dioxo 1,2-dihydro-1λ^6-benzo[e][1,2]-thiazine-3-carboxylic acid monosodium salt] | 0.002 | > 2.5 | 6.9 | –
8 | – | O=C(O)C1=C(c2ccc3c(c2)OCO3)c2ccccc2S(=O)(=O)N1c1ccccc1C(F)(F)F [Example 11, 4-Benzo[1,3]dioxol-5-yl-1,1-dioxo-2-(2-trifluoromethyl-phenyl)-1,2-dihydro-1λ^6-benzo[e][1,2]thiazine-3-carboxylic acid] | 0.011 | 11 | 6.6 | –
9 | – | Cc1ccccc1N1C(C(=O)O)=C(c2ccc3c(c2)OCO3)c2ccccc2S1(=O)=O [Example 12] | 0.061 | > 25 | – | 0.1
10 | – | CCCc1ccccc1N1C(C(=O)O)=C(c2ccc3c(c2)OCO3)c2ccccc2S1(=O)=O [Example 14, 4-Benzo[1,3]dioxol-5-yl-2-(2-1,2-pyphenyl)-1,1-dioxo 1,2-dihydro-1λ^6-benzo[e][1,2]thiazine-3-carboxylic acid] | 0.035 | > 2.5 | 5.8 | –
11 | – | O=C(O)C1=C(c2ccc3c(c2)OCO3)c2ccccc2S(=O)(=O)N1c1ccccc1Br [Example 17, 4-Benzo[1,3]dioxol-5yl-2-(2bromophenyl)-1,1-dioxo-1,2-dihydro-1λ^6-benzo[e][1,2]thiazine-3-carboxylic acid] | 0.03 | > 25 | – | 0.031
12 | – | O=C(O)C1=C(c2ccc3c(c2)OCO3)c2ccccc2S(=O)(=O)N1c1ccccc1Cl [Example 18, 4-Benzo [1,3]dioxol-5yl-2-(2-chlorophenyl)-1,1-dioxo-1,2-dihydro-1λ^6-benzo[e][1,2]thiazine-3-carboxylic acid] | 0.036 | > 25 | 5.8 | 0.032
13 | – | O=C(O)C1=C(c2ccc3c(c2)OCO3)c2ccccc2S(=O)(=O)N1c1cc2c(cc1Cl)OCO2 [Example 25] | 0.11 | > 25 | 6.0 | 0.05
14 | – | O=C(O)C1=C(c2ccc3c(c2)OCO3)c2ccccc2S(=O)(=O)N1c1ccccc1-n1cccc1 [Example 27, 4-Benzo[1,3]dioxol-5-yl-1,1-dioxo-2-(2-2-pyrrol-1-ylphenyl)-1,2-dihydro-1λ^6-benzo[e][12]thiazine-3-carboxylic acid] | 0.04 | 19 | – | –
15 | – | Cc1noc(N2C(C(=O)O)=C(c3ccc4c(c3)OCO4)c3ccccc3S2(=O)=O)c1C [Example 28] | 0.09 | > 25 | – | –
16 | – | O=C(O)C1=C(c2ccc3c(c2)OCO3)c2ccccc2S(=O)(=O)N1c1ccccc1Cc1ccccc1 [Example 29, 4-Benzo[1,3]dioxol-5-yl-2-(2benzylphenyl)-1,1-dioxo-1,2-dihydro-1λ^6-benzo[e][1,2]thiazine-3-carboxylic acid] | 0.04 | > 2.5 | – | –
